Experiment [1] deals with T7 RNA polymerase (Escherichia phage T7, UniProt P00573). To be noted: 1 mM substrate, 1 mM NTPs, template DNA containing Ds, 37° C., 3 hours; FIG. 49. As to the method:
More specifically, experimental procedures as shown below were used. […] After reaction at 37° C. for 3 hours, 10 M urea (20 μL) was added to this solution to stop the reaction.

Experiment [2] has as its target Klenow fragment lacking 3′-5′ exonuclease activity (Escherichia coli, UniProt P00582, D355A/E357A). To be noted: template DNA (55-mer) containing Ds, 10 μM substrate, 37° C., 5 minutes; FIG. 48. As to the method:
More specifically, experimental procedures as shown below were used. […] The reaction was performed using 200 nM Template-Primer, 100 μM or 200 μM dNTPs (N=A, G, C, T), 10 μM NH2-hx-dPnTP or FAM-hx-dPnTP, and 0.1 U/μl Klenow fragment (GE Health Care) in 50 mM Tris-HCl (pH 7.5), 10 mM MgCl2, 1 mM DTT, 0.05 mg/ml BSA. After reaction at 37° C. for 5 minutes, 10 M urea (20 μl) was added to this solution to stop the reaction. […] Bands of the reaction products were detected with a fluorescence image analyzer (Molecular Imager, Bio-Rad, FAM detection mode).

Experiment [3] concerns the target T1, Klenow fragment lacking exonuclease activity (KF exo−) (Escherichia coli, UniProt P00582, D355A/E357A).
T1 construct: enzyme solution of the Klenow fragment lacking exonuclease activity (KF exo^−, Amersham USB); purchased Amersham USB
It counts as biochemical, E. coli. To be noted: for Efficiency (Vmax/KM) / Km / Vmax: 37° C. As to the method: The single nucleotide insertion experiment was performed as described in documents (Non-patent Documents 30-32). A primer (20-mer) labeled with 6-carboxylfluorescein at the 5′-end was annealed with template DNA (35-mer) by heating at 95° C. and slow cooling to 4° C. in 100 mM Tris-HCl (pH 7.5) buffer containing 20 mM MgCl2, 2 mM DTT and 0.1 mg/ml bovine serum albumin. The primer-template duplex solution (10 μM, 5 μl) was mixed with 2 μl enzyme solution of the Klenow fragment lacking exonuclease activity (KF exo^−, Amersham USB). After the mixture was incubated for 2 minutes, each dNTP solution (3 μl) was added to this solution to start the reaction at 37° C. The amount of the enzyme used (5-50 nM), the reaction time (1-35 minutes) and the gradient concentration of each dNTP (0.3-1500 μM) were adjusted to ensure conditions giving 25% or less products. The reaction was stopped with 10 μl stop solution (95% formamide and 20 mM EDTA), and the mixture was immediately heated at 75° C. for 3 minutes. The diluted products were analyzed in an automated ABI377 DNA sequencer equipped with GeneScan software (version 3.0) (Non-patent Document 32). The relative velocity (v0) was calculated by dividing the extent of reaction by the reaction time, and then normalized to the enzyme concentration (20 nM) for the various enzyme concentrations used. Kinetic parameters (KM and Vmax) were obtained from Hanes-Woolf plots of [dNTP]/v0 against [dNTP].
Each parameter was averaged from 3 to 8 data sets.

Experiment [4] has as its system Klenow fragment (KF exo+ / KF exo−). As to conditions: FIG. 2e; for primer extension after incorporation of the substrate: dDsTPN opposite template Pa, dATPN opposite template T, Lanes 2 and 14. As to the method:
(§1) [FIG. 2d] FIGS. 2a to 2e show single nucleotide insertion and primer extension experiments with an unnatural base pair system based on Ds-Pa base pairing.
(§2) [FIG. 2e] FIGS. 2a to 2e show single nucleotide insertion and primer extension experiments with an unnatural base pair system based on Ds-Pa base pairing.
(§3) A 5′-^32P-labeled primer (23-mer) and template DNA (35-mer) were annealed into duplex form in 20 mM Tris-HCl (pH 7.5) buffer containing 14 mM MgCl2 and 0.2 mM DTT. The duplex solution (400 nM, 5 μl) was mixed with each 5× dNTP solution (2 μl) on ice, followed by addition of 3 μl enzyme solution containing KF exo^− (1 unit) or KF exo^+ (1 unit) (TAKARA) to start the reaction. After the reaction solution was incubated at 37° C. for 3 or 5 minutes, a dye solution (10 μl) containing 89 mM Tris-borate, 2 mM EDTA, 10 M urea and 0.05% BPB was added to stop the reaction. […] The products on the gel were analyzed with a bio-imaging analyzer (model BAS2500, Fuji).

The target of experiment [5] is Klenow fragment (KF exo+ / KF exo−) (Escherichia coli, UniProt P00582). To be noted: dPaTP and natural substrates in the presence of the named substrate (0.5 or 1 molar equivalent of dPaTP); FIG. 2d. As to the method:
as §1, §2, §3

Each structure is given as a SMILES string. Where two headings read alike, the source gives them in different places.

These results are taken from patent US8030478B2, “Method for nucleic acid replication and novel artificial base pairs” (priority 2005, dated 2011).

T1 sequence (P00582 324-928 D355A/E357A): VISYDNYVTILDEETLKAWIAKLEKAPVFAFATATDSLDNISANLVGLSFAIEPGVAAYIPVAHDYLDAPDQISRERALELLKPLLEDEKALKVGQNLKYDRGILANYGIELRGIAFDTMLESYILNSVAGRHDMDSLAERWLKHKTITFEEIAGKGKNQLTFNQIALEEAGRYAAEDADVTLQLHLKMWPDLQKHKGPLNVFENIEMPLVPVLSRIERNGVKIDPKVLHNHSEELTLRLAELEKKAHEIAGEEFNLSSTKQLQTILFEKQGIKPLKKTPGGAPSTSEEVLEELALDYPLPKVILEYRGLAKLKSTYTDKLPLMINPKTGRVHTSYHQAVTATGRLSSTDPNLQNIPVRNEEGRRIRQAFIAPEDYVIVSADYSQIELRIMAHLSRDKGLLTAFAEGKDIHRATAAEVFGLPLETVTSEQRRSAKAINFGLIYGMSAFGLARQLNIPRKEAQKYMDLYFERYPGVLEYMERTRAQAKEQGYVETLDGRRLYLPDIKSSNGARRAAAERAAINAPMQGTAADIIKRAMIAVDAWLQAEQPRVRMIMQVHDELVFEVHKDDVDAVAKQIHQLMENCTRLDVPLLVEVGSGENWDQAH
Chain of Klenow fragment lacking 3′-5′ exonuclease activity (P00582 324-928 D355A/E357A): as above
Chain of Klenow fragment (KF exo+ / KF exo−) (Escherichia coli, UniProt P00582) (P00582 324-928): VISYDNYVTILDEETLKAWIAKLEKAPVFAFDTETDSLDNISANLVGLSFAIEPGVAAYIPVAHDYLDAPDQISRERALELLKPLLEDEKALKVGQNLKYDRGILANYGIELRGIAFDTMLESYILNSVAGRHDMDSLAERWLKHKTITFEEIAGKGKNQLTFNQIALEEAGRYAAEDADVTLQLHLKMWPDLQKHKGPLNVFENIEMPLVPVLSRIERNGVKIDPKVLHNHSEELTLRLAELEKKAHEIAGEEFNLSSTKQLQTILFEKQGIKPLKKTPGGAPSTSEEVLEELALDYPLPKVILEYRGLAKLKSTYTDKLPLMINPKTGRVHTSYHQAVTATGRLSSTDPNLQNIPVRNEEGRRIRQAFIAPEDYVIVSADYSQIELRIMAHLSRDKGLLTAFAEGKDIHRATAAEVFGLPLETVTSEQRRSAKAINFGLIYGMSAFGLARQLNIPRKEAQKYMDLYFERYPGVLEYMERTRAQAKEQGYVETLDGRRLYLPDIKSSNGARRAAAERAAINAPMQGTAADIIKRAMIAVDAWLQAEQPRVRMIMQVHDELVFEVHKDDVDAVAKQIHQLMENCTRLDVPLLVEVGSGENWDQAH
Chain of T7 RNA polymerase (P00573 whole entry): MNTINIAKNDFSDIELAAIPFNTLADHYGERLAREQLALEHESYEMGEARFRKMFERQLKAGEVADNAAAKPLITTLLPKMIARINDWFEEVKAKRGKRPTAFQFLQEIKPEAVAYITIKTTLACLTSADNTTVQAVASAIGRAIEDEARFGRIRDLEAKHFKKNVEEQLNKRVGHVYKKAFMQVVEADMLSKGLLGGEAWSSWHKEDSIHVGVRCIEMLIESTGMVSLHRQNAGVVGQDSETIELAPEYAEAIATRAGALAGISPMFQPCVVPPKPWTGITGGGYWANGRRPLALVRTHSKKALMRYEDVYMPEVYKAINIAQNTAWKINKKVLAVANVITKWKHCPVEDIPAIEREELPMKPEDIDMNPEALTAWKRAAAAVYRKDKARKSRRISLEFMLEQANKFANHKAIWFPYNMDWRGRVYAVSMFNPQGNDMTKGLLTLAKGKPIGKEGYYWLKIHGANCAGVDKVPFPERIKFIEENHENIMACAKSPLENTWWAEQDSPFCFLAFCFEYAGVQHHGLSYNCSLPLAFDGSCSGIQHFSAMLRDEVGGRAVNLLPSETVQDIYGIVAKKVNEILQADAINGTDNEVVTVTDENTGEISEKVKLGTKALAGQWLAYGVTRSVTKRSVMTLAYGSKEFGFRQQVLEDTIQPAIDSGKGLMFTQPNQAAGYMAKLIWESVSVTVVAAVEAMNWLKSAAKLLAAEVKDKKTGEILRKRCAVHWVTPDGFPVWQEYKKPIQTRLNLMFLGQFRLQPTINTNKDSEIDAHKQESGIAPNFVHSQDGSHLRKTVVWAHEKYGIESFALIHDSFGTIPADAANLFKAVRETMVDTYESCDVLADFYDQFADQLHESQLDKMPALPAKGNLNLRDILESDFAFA

Consider `O=Cc1cc(C#CCNC(=O)CCCCCNC(=O)c2ccc3c(c2)C(=O)OC32c3ccc(O)cc3Oc3cc(O)ccc32)cn1[C@@H]1O[C@H](COP(=O)(O)OP(=O)(O)OP(=O)(O)O)[C@@H](O)[C@H]1O` [FAM-hx-PaTP, 1-(β-D-Ribofuranosyl)-4-[3-(6-(fluorescein-5-carboxamido)hexanamido)-1-propynyl]pyrrole-2-carbaldehyde 5′-triphosphate], for which the “transcription efficiency compared to control with natural substrates alone” value in experiment [1] is 14%.

On to `O=C(CCCCCNC(=O)c1ccc2c(c1)C(=O)OC21c2ccc(O)cc2Oc2cc(O)ccc21)NCC#Cc1cc([N+](=O)[O-])n([C@H]2C[C@H](O)[C@@H](COP(=O)(O)OP(=O)(O)OP(=O)(O)O)O2)c1` [FAM-hx-dPnTP, 1-(2-Deoxy-β-D-ribofuranosyl)-4-[3-[6-(fluorescein-5-carboxamido)hexanamido]-1-propynyl]-2-nitropyrrole 5′-triphosphate], for which the “incorporation into DNA through primer extension” value in experiment [2] was “incorporated into DNA opposite Ds in the template DNA”.

Take `NCCCCCC(=O)NCC#Cc1cc([N+](=O)[O-])n([C@H]2C[C@H](O)[C@@H](COP(=O)(O)OP(=O)(O)OP(=O)(O)O)O2)c1` [NH2-hx-dPnTP]: the “incorporation into DNA through primer extension” value in experiment [2] is given as “incorporated into DNA opposite Ds in the template DNA”.

Consider `CN(C)c1ccc2c(c1)Oc1cc(N(C)C)ccc1C21OC(=O)c2cc(C(=O)NCCCCCC(=O)NCC#Cc3cc(C=O)n([C@@H]4O[C@H](COP(=O)(O)OP(=O)(O)OP(=O)(O)O)[C@@H](O)[C@H]4O)c3)ccc21` [TAMRA-hx-PaTP, 1-(β-D-Ribofuranosyl)-4-[3-(6-(tetramethylrhodamine-5-carboxamido)hexanamido)-1-propynyl]pyrrole-2-carbaldehyde 5′-triphosphate], for which the “transcription efficiency compared to control with natural substrates alone” value in experiment [1] was 10%.

In the case of `Nc1ncnc2c1ncn2[C@H]1C[C@H](O)[C@@H](COP(=O)(O)OP(=O)(O)OP(N)(=O)O)O1` [dATPN, 6-Amino-9-(2-deoxy-β-D-ribofuranosyl)purine 5′-γ-amidotriphosphate], the “Efficiency (Vmax/KM)” value in experiment [3] (template (N) = C, temp35N-2) is on record as 3.4 × 10^2 % min^−1M^−1; in experiment [3] (template (N) = Ds, temp35N-1), 3.2 × 10^2 % min^−1M^−1; in experiment [3] (template (N) = Pa, temp35N-2), 1.8 × 10^3 % min^−1M^−1; in experiment [3] (template (N) = Pa′, temp35N-2), 3.0 × 10^3 % min^−1M^−1; in experiment [3] (template (N) = T, temp35N-2), 2.5 × 10^5 % min^−1M^−1. For the same molecule, the Km (as a rule, the concentration of substrate that gives half-maximal velocity) in experiment [3] (template (N) = C, temp35N-2) was found to be 590 µM; in experiment [3] (template (N) = Ds, temp35N-1) it was 150 µM; in experiment [3] (template (N) = Pa, temp35N-2), 1200 µM; in experiment [3] (template (N) = Pa′, temp35N-2), 800 µM; in experiment [3] (template (N) = T, temp35N-2) it was 13 µM. Further, the Vmax in experiment [3] (template (N) = C, temp35N-2) came out at 0.20 % min^−1; in experiment [3] (template (N) = Ds, temp35N-1) it was 0.048 % min^−1; in experiment [3] (template (N) = Pa, temp35N-2), 2.2 % min^−1; in experiment [3] (template (N) = Pa′, temp35N-2) it was 2.4 % min^−1; in experiment [3] (template (N) = T, temp35N-2), 3.2 % min^−1. Further, the “extension reaction after misincorporation opposite template Pa, compared to dATP” value in experiment [4] (Lanes 4 and 5) is reported as “significantly reduced efficiency”. For the same molecule, the “primer extension after incorporation of the substrate” value in experiment [4] is “proceeded efficiently”.

On to `O=P(O)(O)OP(=O)(O)OP(=O)(O)OC[C@H]1O[C@@H](n2cnc3c(-c4cccs4)ccnc32)C[C@@H]1O` [dDsTP, 7-(2-Thienyl)-3-(2-deoxy-β-ribofuranosyl)-3H-imidazo[4,5-b]pyridine 5′-triphosphate], for which the “Efficiency (Vmax/KM)” value in experiment [3] (template (N) = A, temp35N-2) is 3.6 × 10^4 % min^−1M^−1; in experiment [3] (template (N) = C, temp35N-2), 2.8 × 10^4 % min^−1M^−1; in experiment [3] (template (N) = Ds, temp35N-1), 2.0 × 10^5 % min^−1M^−1; in experiment [3] (template (N) = G, temp35N-2), 4.1 × 10^4 % min^−1M^−1; in experiment [3] (template (N) = Pa, temp35N-2), 1.1 × 10^4 % min^−1M^−1; in experiment [3] (template (N) = Pa′, temp35N-2), 8.8 × 10^5 % min^−1M^−1. Also, the “Efficiency (Vmax/KM)” value in experiment [3] (template (N) = T, temp35N-2) is listed as 8.7 × 10^4 % min^−1M^−1. Also, the Km worked out at 33 µM in experiment [3] (template (N) = A, temp35N-2); 47 µM in experiment [3] (template (N) = C, temp35N-2); 8 µM in experiment [3] (template (N) = Ds, temp35N-1); 37 µM in experiment [3] (template (N) = G, temp35N-2); 26 µM in experiment [3] (template (N) = Pa, temp35N-2); 24 µM in experiment [3] (template (N) = Pa′, temp35N-2). Moreover, in experiment [3] (template (N) = T, temp35N-2), the Km is 45 µM. Besides, the Vmax is 1.2 % min^−1 in experiment [3] (template (N) = A, temp35N-2); 1.3 % min^−1 in experiment [3] (template (N) = C, temp35N-2); 1.6 % min^−1 in experiment [3] (template (N) = Ds, temp35N-1); 1.5 % min^−1 in experiment [3] (template (N) = G, temp35N-2); 28 % min^−1 in experiment [3] (template (N) = Pa, temp35N-2); 21 % min^−1 in experiment [3] (template (N) = Pa′, temp35N-2). Further, in experiment [3] (template (N) = T, temp35N-2), the Vmax is 3.9 % min^−1. Further, in experiment [5], the “primer extension with KF exo+ on Ds-containing template” value was “inhibited”.

`NP(=O)(O)OP(=O)(O)OP(=O)(O)OC[C@H]1O[C@@H](n2cnc3c(-c4cccs4)ccnc32)C[C@@H]1O` [dDsTPN, 7-(2-Thienyl)-3-(2-deoxy-β-D-ribofuranosyl)-3H-imidazo[4,5-b]pyridine 5′-γ-amidotriphosphate]: the “incorporation efficiency opposite template Pa relative to that of dATPN opposite template Pa” value in experiment [3] (KF exo−, template Pa) was determined as 37 fold. The “Efficiency (Vmax/KM)” value in experiment [3] (template (N) = A, temp35N-2) is given as 1.9 × 10^3 % min^−1M^−1; in experiment [3] (template (N) = C, temp35N-2), 1.5 × 10^3 % min^−1M^−1; in experiment [3] (template (N) = Ds, temp35N-1), 9.9 × 10^3 % min^−1M^−1; in experiment [3] (template (N) = G, temp35N-2), 1.9 × 10^3 % min^−1M^−1; in experiment [3] (template (N) = Pa, temp35N-2) it was 6.7 × 10^4 % min^−1M^−1; in experiment [3] (template (N) = Pa′, temp35N-2) it was 5.7 × 10^4 % min^−1M^−1. For the same molecule, in experiment [3] (template (N) = T, temp35N-2), the “Efficiency (Vmax/KM)” value was 3.5 × 10^3 % min^−1M^−1. Moreover, the Km in experiment [3] (template (N) = A, temp35N-2) came to 270 µM; in experiment [3] (template (N) = C, temp35N-2) it was 440 µM; in experiment [3] (template (N) = Ds, temp35N-1) it was 79 µM; in experiment [3] (template (N) = G, temp35N-2), 300 µM; in experiment [3] (template (N) = Pa, temp35N-2), 180 µM; in experiment [3] (template (N) = Pa′, temp35N-2) it was 230 µM. The Km in experiment [3] (template (N) = T, temp35N-2) was 480 µM. The Vmax is recorded as 0.52 % min^−1 in experiment [3] (template (N) = A, temp35N-2); 0.64 % min^−1 in experiment [3] (template (N) = C, temp35N-2); 0.78 % min^−1 in experiment [3] (template (N) = Ds, temp35N-1); 0.58 % min^−1 in experiment [3] (template (N) = G, temp35N-2); 12 % min^−1 in experiment [3] (template (N) = Pa, temp35N-2); 13 % min^−1 in experiment [3] (template (N) = Pa′, temp35N-2). For the same molecule, in experiment [3] (template (N) = T, temp35N-2), the Vmax was found to be 1.7 % min^−1. For the same molecule, the “primer extension with KF exo+ on Ds-containing template” value in experiment [5] is “proceeded without being inhibited”. Also, the “primer extension after incorporation of the substrate” value in experiment [4] is recorded as “proceeded efficiently”.
